Data from US10654837B2, “Sulphamoylaryl derivatives and use thereof as medicaments for the treatment of liver fibrosis” (Janssen Pharmaceutica NV, priority 2017, dated 2020).

Target: T1, 5HTR2B (Homo sapiens, UniProt P41595)
T1 construct: host or cells: human Maverick/293 cells
Assay: 5HTR2B antagonist activity, calcium mobilization assay in human Maverick/293 cells (serotonin as agonist)
Assay type: cell-based
Conditions: intracellular calcium, emission 525 nm, read-out: Ca assay IC50
Summary of the method: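 Calcium mobilization read over 80 s at ex 485/em 525 nm after serotonin addition. Before that, 2 h serum-free starvation, 50 min dye loading at 37 °C, and 15-30 min antagonist exposure. IC50 from sigmoidal fit of peak % inhibition.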

T1 sequence (P41595 whole entry): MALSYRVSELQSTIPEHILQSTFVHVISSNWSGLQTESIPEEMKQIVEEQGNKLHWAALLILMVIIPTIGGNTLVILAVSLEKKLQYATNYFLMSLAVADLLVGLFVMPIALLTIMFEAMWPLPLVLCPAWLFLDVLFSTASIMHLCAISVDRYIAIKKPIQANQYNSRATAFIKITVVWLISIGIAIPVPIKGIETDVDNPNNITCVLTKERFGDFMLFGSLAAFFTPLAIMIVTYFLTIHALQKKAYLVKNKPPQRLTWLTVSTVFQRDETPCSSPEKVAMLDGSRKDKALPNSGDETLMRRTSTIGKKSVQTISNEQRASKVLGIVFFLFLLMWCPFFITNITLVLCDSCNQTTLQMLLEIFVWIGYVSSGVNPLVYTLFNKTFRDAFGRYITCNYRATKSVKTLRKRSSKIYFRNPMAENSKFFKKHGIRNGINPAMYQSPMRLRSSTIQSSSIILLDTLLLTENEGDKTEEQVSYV

Row | IC50 [nM] | SMILES
1 | 2.1 | COc1ccc(S(=O)(=O)N[C@H]2CCOC2)cc1C(=O)Nc1c(F)cccc1OC [Compound 130, (S)—N-(2-Fluoro-6-methoxyphenyl)-2-methoxy-5-(N-(tetrahydrofuran-3-yl)sulfamoyl)benzamide]
2 | 3.4 | COc1ccc(S(=O)(=O)N[C@@H](C)CO)cc1C(=O)Nc1ccc(F)cc1 [Compound 49a, (S)—N-(4-Fluorophenyl)-5-(N-(1-hydroxypropan-2-yl)sulfamoyl)-2-methoxybenzamide]
3 | 7.2 | COc1ccc(S(=O)(=O)NC2COC2)cc1C(=O)Nc1ccc(F)cc1 [Compound 43, N-(4-Fluorophenyl)-2-methoxy-5-(N-(oxetan-3-yl)sulfamoyl)benzamide]
4 | 50 | COc1ccc(S(=O)(=O)N[C@H]2CCOC2)cc1C(=O)Nc1ncc(Cl)cc1F [Compound 120, (S)—N-(5-Chloro-3-fluoropyridin-2-yl)-2-methoxy-5-(N-(tetrahydrofuran-3-yl)sulfamoyl)benzamide]
5 | 222 | COc1ccc(S(=O)(=O)N[C@H]2CC[C@H](O)CC2)cc1C(=O)Nc1ccc(F)c(C)n1 [Compound 18, (trans)-N-(5-Fluoro-6-methylpyridin-2-yl)-5-(N-(−4-hydroxycyclohexyl)sulfamoyl)-2-methoxybenzamid]
6 | 0.6 | COc1ccc(S(=O)(=O)N[C@H]2CCOC2)cc1C(=O)Nc1ccc(F)c(C)n1 [Compound 2]
7 | 0.4 | [2H]C([2H])([2H])Oc1ccc(S(=O)(=O)N[C@H]2CCOC2)cc1C(=O)Nc1ccc(F)c(C(F)F)c1 [Compound 192, (S)—N-(3-(Difluoromethyl)-4-fluorophenyl)-2-(methoxy-d3)-5-(N-(tetrahydrofuran-3-yl)sulfamoyl)benzamide]
8 | 5.4 | COc1ccc(S(=O)(=O)N[C@H]2CCOC2)cc1C(=O)Nc1ccc(F)cn1 [Compound 116, (S)—N-(5-Fluoropyridin-2-yl)-2-methoxy-5-(N-(tetrahydrofuran-3-yl)sulfamoyl) benzamide]
9 | 50 | COc1ccc(S(=O)(=O)N[C@@H](C)CO)cc1C(=O)Nc1ccc(F)cc1 [Compound 52a, (S)—N-(4-fluorophenyl)-5-(N-(1-hydroxypropan-2-yl)sulfamoyl)-2-methoxybenzamide]
10 | 0.16 | COc1ccccc1NC(=O)c1cc(S(=O)(=O)N[C@H]2CCOC2)ccc1OC [Compound 166, (S)-2-Methoxy-N-(2-methoxyphenyl)-5-(N-(tetrahydrofuran-3-yl)sulfamoyl) benzamide]
11 | 0.7 | COc1ccc(S(=O)(=O)N[C@H]2CCOC2)cc1C(=O)Nc1ccc(F)c(C)c1 [Compound 4, (S)—N-(4-Fluoro-3-methylphenyl)-2-methoxy-5-(N-(tetrahydrofuran-3-yl)sulfamoyl)benzamide]
12 | 2.4 | COc1ccc(S(=O)(=O)NCC(O)C(F)(F)F)cc1C(=O)Nc1ccc(F)cc1 (single isomer, unassigned) [Compound 44a, (S*)—N-(4-Fluorophenyl)-2-methoxy-5-(N-(3,3,3-trifluoro-2-hydroxypropyl)sulfamoyl)benzamide]
13 | 64 | COc1ccc(S(=O)(=O)N[C@H]2CCOC2)cc1C(=O)Nc1ncc(F)cn1 [Compound 117, (S)—N-(5-Fluoropyrimidin-2-yl)-2-methoxy-5-(N-(tetrahydrofuran-3-yl)sulfamoyl)benzamide]
14 | 159 | COc1ccc(S(=O)(=O)N[C@H]2C[C@H](O)C2)cc1C(=O)Nc1c(C)cccc1Cl [Compound 138a, N-(2-Chloro-6-methylphenyl)-5-(N-((trans)-3-hydroxycyclobutyl)sulfamoyl)-2-methoxybenzamide]
15 | 0.7 | COc1ccc(S(=O)(=O)N[C@H]2C[C@H](O)C2)cc1C(=O)Nc1ccc(Cl)cc1F [Compound 143a, N-(4-chloro-2-fluorophenyl)-5-(N-((trans)-3-hydroxycyclobutyl)sulfamoyl)-2-methoxybenzamide]
16 | 28 | COc1ccc(S(=O)(=O)N[C@H]2CCOC2)cc1C(=O)Nc1ccc(F)c(F)c1F [Compound 88, (S)-2-Methoxy-5-(N-(tetrahydrofuran-3-yl)sulfamoyl)-N-(2,3,4-trifluorophenyl) benzamide]
17 | 10 | COc1ccc(S(=O)(=O)N[C@H]2CCOC2)cc1C(=O)Nc1cccc2c1cnn2C [Compound 110, (S)-2-Methoxy-N-(1-methyl-1H-indazol-4-yl)-5-(N-(tetrahydrofuran-3-yl)sulfamoyl)benzamide]
18 | 4.3 | COc1ccc(S(=O)(=O)N[C@H](C)CO)cc1C(=O)Nc1ccc(F)c(C(F)F)c1 [Compound 35b, (R)—N-(3-(Difluoromethyl)-4-fluorophenyl)-5-(N-(1-hydroxypropan-2-yl)sulfamoyl)-2-methoxybenzamide]
19 | 84 | COc1ccc(S(=O)(=O)N[C@H]2CCOC2)cc1C(=O)Nc1cc(F)cc(F)c1Cl [Compound 96, (S)—N-(2-Chloro-3,5-difluorophenyl)-2-methoxy-5-(N-(tetrahydrofuran-3-yl)sulfamoyl)benzamide]
20 | 167 | COc1ccc(S(=O)(=O)N[C@H](C)C(N)=O)cc1C(=O)Nc1ccc(F)c(C(F)F)c1 [Compound 34b, (R)-5-(N-(1-Amino-1-oxopropan-2-yl)sulfamoyl)-N-(3-(difluoromethyl)-4-fluorophenyl)-2-methoxybenzamide]

Row | IC50 [nM] | SMILES
21 | 2.8 | COc1ccc(S(=O)(=O)N[C@H]2C[C@@H](O)C2)cc1C(=O)Nc1ccc(F)c(C)n1 [Compound 141]
22 | 1.4 | COc1ccc(S(=O)(=O)N[C@H]2CCOC2)cc1C(=O)Nc1ncc(F)cc1Cl [Compound 119]
23 | 1.1 | [2H]C([2H])([2H])Oc1ccc(S(=O)(=O)N[C@H]2CCOC2)cc1C(=O)Nc1ccc(F)c(C)c1 [Compound 191, (S)—N-(4-fluoro-3-methylphenyl)-2-(methoxy-d3)-5-(N-(tetrahydrofuran-3-yl)sulfamoyl)benzamide]
24 | 201 | COc1ccc(S(=O)(=O)N[C@H]2CCOC2)cc1C(=O)Nc1ccc(C#N)cc1 [Compound 104, (S)—N-(4-Cyanophenyl)-2-methoxy-5-(N-(tetrahydrofuran-3-yl)sulfamoyl) benzamide]
25 | 4.2 | COc1ccc(S(=O)(=O)NC2COC2)cc1C(=O)Nc1ccc(F)c(C)c1 [Compound 5, N-(4-Fluoro-3-methylphenyl)-2-methoxy-5-(N-(oxetan-3-yl)sulfamoyl) benzamide]
26 | 1.5 | COc1ccc(S(=O)(=O)N[C@H]2CCOC2)cc1C(=O)Nc1ccc(Cl)cc1Cl [Compound 85, (S)—N-(2,4-Dichlorophenyl)-2-methoxy-5-(N-(tetrahydrofuran-3-yl)sulfamoyl) benzamide]
27 | 3.2 | COc1ccc(S(=O)(=O)NCC(O)C(F)(F)F)cc1C(=O)Nc1ccc(F)cc1 (single isomer, unassigned) [Compound 44b, (R*)—N-(4-Fluorophenyl)-2-methoxy-5-(N-(3,3,3-trifluoro-2-hydroxypropyl)sulfamoyl)benzamide]
28 | 0.5 | COc1ccc(S(=O)(=O)N[C@H]2CCOC2)cc1C(=O)Nc1ccc(F)c(C2CC2)n1 [Compound 162, (S)—N-(6-Cyclopropyl-5-fluoropyridin-2-yl)-2-methoxy-5-(N-(tetrahydrofuran-3-yl)sulfamoyl)benzamide]
29 | 2.2 | COc1ccc(S(=O)(=O)NC2(C)COC2)cc1C(=O)Nc1ccc(F)c(C)c1 [Compound 9, N-(4-Fluoro-3-methylphenyl)-2-methoxy-5-(N-(3-methyloxetan-3-yl)sulfamoyl) benzamide]
30 | 4.2 | COc1ccc(S(=O)(=O)N[C@@H]2CCNC2)cc1C(=O)Nc1ccc(F)c(C)n1 [Compound 177, (R)—N-(5-Fluoro-6-methylpyridin-2-yl)-2-methoxy-5-(N-(pyrrolidin-3-yl)sulfamoyl)benzamide]
31 | 66.3 | COc1ccc(S(=O)(=O)NC2(CO)COC2)cc1C(=O)Nc1ccc(F)c(C)c1 [Compound 13, N-(4-Fluoro-3-methylphenyl)-5-(N-(3-(hydroxymethyl)oxetan-3-yl)sulfamoyl)-2-methoxybenzamide]
32 | 8.8 | COc1ccc(S(=O)(=O)N[C@H]2CCOC2)cc1C(=O)Nc1cc(F)cc(F)c1 [Compound 67, (S)—N-(3,5-Difluorophenyl)-2-methoxy-5-(N-(tetrahydrofuran-3-yl)sulfamoyl)benzamide]
33 | 0.3 | COc1ccc(S(=O)(=O)N[C@H]2CCNC2)cc1C(=O)Nc1ccc(F)cc1F [Compound 182]
34 | 65 | COc1ccc(S(=O)(=O)NC2CNC2)cc1C(=O)Nc1ccc(F)c(C)n1 [Compound 169, 5-(N-(Azetidin-3-yl)sulfamoyl)-N-(5-fluoro-6-methylpyridin-2-yl)-2-Methoxy benzamide]
35 | 1.3 | COc1ccc(S(=O)(=O)NC2CCC2)cc1C(=O)Nc1ccc(F)c(C)c1 [Compound 63, 5-(N-Cyclobutylsulfamoyl)-N-(4-fluoro-3-methylphenyl)-2-methoxybenzamide]
36 | 0.3 | COc1ccc(S(=O)(=O)N[C@H]2CCNC2)cc1C(=O)Nc1ccc(F)cc1 [Compound 178, (S)—N-(4-Fluorophenyl)-2-methoxy-5-(N-(pyrrolidin-3-yl)sulfamoyl)benzamide]
37 | 1 | COc1ccc(S(=O)(=O)NC2CCCC2)cc1C(=O)Nc1ccc(F)cc1 [Compound 51, 5-(N-Cyclopentylsulfamoyl)-N-(4-fluorophenyl)-2-methoxybenzamide]
38 | 173 | COc1ccc(S(=O)(=O)NC2CCN(C)CC2)cc1C(=O)Nc1ccc(F)c(C)n1 [Compound 19, N-(5-Fluoro-6-methylpyridin-2-yl)-2-methoxy-5-(N-(1-methylpiperidin-4-yl)sulfamoyl)benzamide]
39 | 0.2 | COc1ccc(S(=O)(=O)NC2(C)COC2)cc1C(=O)Nc1ccccc1Cl [Compound 58, N-(2-Chlorophenyl)-2-methoxy-5-(N-(3-methyloxetan-3-yl)sulfamoyl) benzamide]
40 | 231 | COc1ccc(S(=O)(=O)N[C@H]2CCOC2)cc1C(=O)Nc1cccc(C(F)(F)F)c1 [Compound 109, (S)-2-Methoxy-5-(N-(tetrahydrofuran-3-yl)sulfamoyl)-N-(3-(trifluoromethyl)phenyl)benzamide]
